Measurements reported in patent US20090087845A1, “Genetic Markers Of True Low Birth Weight” (priority 2005, published 2009).
Several values for one entry are separate records, joined by “and”; a condition that tells them apart may be missing. Equal entries are not always repeated.

Test system: placental gene expression
Experiment: Placental gene expression (Affymetrix Rat Genome Chip 230.2) after SSRI (fluoxetine) exposure throughout gestation
Format: in vivo
Conditions: placenta, SSRI-exposed samples
Procedure: Gene expression data from pregnant rats under different forms of dietary restriction was gathered. […] (N=8) • Group 2 (CR50): Rats Given 50% of their Normal Daily Intake of Food. (N=5) • Group 3 (CR70): Rats Given 70% of their Normal Daily Intake of Food. […] (N=6) Placentas from the rats of each Group were harvested on Day 21 of gestation. RNA was extracted and gene expression was measured based on hybridization of RNA to Affymetrix Rat Genome Chips™ (230.2) (Affymetrix, Santa Clara, Calif.).
In order to determine whether placental gene expression profiling can be used to identify other prenatal exposures such as toxicants and drugs, a group of rats with drug exposure was monitored as described above. […] As with control, CR50, CR70, and HF groups, placentas from the mothers were sampled after 21 days of gestation and gene expression monitored utilizing an Affymetrix Rat Genome Chip.

Compound: CNCCC(Oc1ccc(C(F)(F)F)cc1)c1ccccc1 (stereo not shown) [fluoxetine, Fluoxetine]
- expression, probeset 1384527_at: 5 and 5.16 and 4.806 and 4.891 and 4.944 and 4.995
- expression, probeset 1384528_at: 7.1 and 7.424 and 7.73 and 8.04 and 7.505 and 7.682
- expression, probeset 1384641_at: 5.867 and 5.877 and 5.784 and 5.513 and 5.517 and 5.626
- expression, probeset 1384849_at: 4.659 and 4.629 and 5.174 and 5.223 and 4.879 and 4.92
- expression, probeset 1384923_at: 6.977 and 7.2 and 6.818 and 6.939 and 6.837 and 6.982
- expression, probeset 1385137_at: 6.326 and 6.421 and 6.154 and 5.912 and 6.02 and 6.248
- expression, probeset 1385163_at: 6.063 and 5.993 and 6.045 and 5.955 and 5.885 and 6.124
- expression, probeset 1385336_at: 4.379 and 4.499 and 4.426 and 4.399 and 4.645 and 4.457
- expression, probeset 1385442_at: 7.16 and 7.404 and 6.997 and 6.879 and 6.92 and 6.943
- expression, probeset 1385518_at: 6.937 and 6.773 and 6.99 and 6.986 and 7.076 and 6.76
- expression, probeset 1385535_at: 4.02 and 3.842 and 4.063 and 4.09 and 4.042 and 4.166
- expression, probeset 1385652_at: 7.797 and 7.898 and 7.543 and 7.484 and 7.575 and 7.378
- expression, probeset 1385676_at: 8.114 and 8.061 and 8.462 and 8.533 and 8.039 and 8.344
- expression, probeset 1385698_at: 3.878 and 3.859 and 3.777 and 3.605 and 3.7424 and 3.746
- expression, probeset 1385760_at: 7.137 and 7.354 and 6.648 and 7.09 and 7.316 and 7.321
- expression, probeset 1385775_at: 4.145 and 4.375 and 3.896 and 3.993 and 4.079 and 4.161
- expression, probeset 1386125_at: 6.311 and 6.381 and 6.134 and 6.261 and 6.055 and 6.325
- expression, probeset 1386158_at: 4.004 and 4.128 and 4.063 and 4.152 and 3.988 and 3.931
- expression, probeset 1386414_at: 6.861 and 7.196 and 6.932 and 7.199 and 7.249 and 7.033
- expression, probeset 1386519_x_at: 7.188 and 7.295 and 7.082 and 7.038 and 7.203 and 7.126
- expression, probeset 1387083_at: 5.565 and 6.278 and 5.686 and 5.781 and 5.789 and 5.938
- expression, probeset 1387136_at: 6.691 and 6.697 and 6.593 and 6.718 and 6.67 and 6.537
- expression, probeset 1387406_at: 6.01 and 6.243 and 5.981 (2×) and 5.916 and 6.087
- expression, probeset 1387459_at: 3.484 and 3.639 and 3.932 and 3.86 and 3.992 and 3.799
- expression, probeset 1387764_at: 5.733 and 5.268 and 5.537 and 5.549 and 5.494 and 5.603
- expression, probeset 1387899_at: 5.335 and 5.408 and 5.339 and 5.026 and 4.958 and 5.215
- expression, probeset 1387912_at: 8.618 and 8.518 and 8.718 and 9.05 and 9.01 and 8.757
- expression, probeset 1388037_at: 4.856 and 4.68 and 4.647 and 4.894 and 4.953 and 4.682
- expression, probeset 1388091_at: 4.362 and 4.794 and 4.302 and 4.133 and 4.449 and 4.329
- expression, probeset 1388390_at: 10.86 and 10.87 and 11.34 and 11.8393 and 11.4165 and 11.4451
- expression, probeset 1388396_at: 8.176 and 7.836 and 8.032 and 8.018 and 7.774 and 8.067
- expression, probeset 1388447_at: 7.564 and 7.841 and 7.682 and 7.537 and 7.38 and 7.532
- expression, probeset 1388486_at: 7.701 and 7.565 and 7.723 and 7.751 and 7.921 and 7.749
- expression, probeset 1388781_at: 5.825 and 6.004 and 5.674 and 5.735 and 5.979 and 5.673
- expression, probeset 1388938_at: 9.061 and 9.268 and 8.805 and 8.994 and 8.728 and 9.107
- expression, probeset 1389095_at: 5.489 and 5.217 and 5.112 and 5.397 and 5.478 and 5.073
- expression, probeset 1389431_at: 6.558 and 6.3 and 6.381 and 6.49 and 6.951 and 6.471
- expression, probeset 1389551_at: 8.862 and 8.606 and 8.909 and 8.801 and 8.621 and 8.842
- expression, probeset 1389664_at: 7.741 and 8.146 and 7.529 and 7.949 and 7.982 and 7.952
- expression, probeset 1389835_at: 4.064 and 3.784 and 4.093 and 4.045 (2×) and 4.18
- expression, probeset 1389917_at: 5.998 and 5.507 and 6.012 and 5.987 and 5.908 and 5.888
- expression, probeset 1389938_at: 3.638 and 3.579 and 3.678 and 3.837 and 3.753 and 3.593
- expression, probeset 1390090_at: 7.476 and 7.464 and 7.498 and 7.393 and 7.3 and 7.578
- expression, probeset 1390259_at: 4.304 and 4.546 and 4.677 and 4.255 and 4.358 and 4.411
- expression, probeset 1390464_at: 5.625 and 5.847 and 5.541 and 5.807 and 5.983 and 5.83
- expression, probeset 1390534_at: 6.478
- expression, probeset 1390603_at: 6.467 and 6.868 and 6.527 and 6.621 and 6.242 and 6.674
- expression, probeset 1390649_at: 7.28 and 7.575 and 6.821 and 7.034 and 7.132 and 6.938
- expression, probeset 1390892_at: 5.112 and 5.3382 and 4.891 and 5.21 and 4.944 and 5.358
